Measured values as given in ChEMBL document CHEMBL1159198, “Identification of magnolol and honokiol as anxiolytic agents in extracts of saiboku-to, an oriental herbal medicine” (1998).
Activity calls are given as the source filed them. The rule behind the calls is not given here.

Experiments:
Mus musculus [1] = experiment: Anxiolytic activity in ddY mouse assessed as time spent in open-sided arms at 0.49 mg/kg, po administered once daily for 7 days by elevated plus-maze test; type: functional, organism-based; design: dose 0.49 mg/kg
Mus musculus [2] = experiment: Anxiolytic activity in ddY mouse assessed as time spent in open-sided arms at 0.19 mg/kg, po administered once daily for 1 day by elevated plus-maze test; type: functional
Mus musculus [3] = experiment: Anxiolytic activity in ddY mouse assessed as time spent in open-sided arms at 0.19 mg/kg, po administered once daily for 3 days by elevated plus-maze test; type: functional
Mus musculus [4] = experiment: Anxiolytic activity in ddY mouse assessed as time spent in open-sided arms at 0.19 mg/kg, po administered once daily for 5 days by elevated plus-maze test; type: functional
Mus musculus [5] = experiment: Anxiolytic activity in ddY mouse assessed as time spent in open-sided arms at 0.19 mg/kg, po administered once daily for 7 days by elevated plus-maze test; type: functional
Mus musculus [6] = experiment: Anxiolytic activity in ddY mouse assessed as time spent in open-sided arms at 0.19 mg/kg, po administered once daily for 14 days by elevated plus-maze test; type: functional
Mus musculus [7] = experiment: Anxiolytic activity in ddY mouse assessed as time spent in open-sided arms at 1 mg/kg, po administered once daily for 1 day by elevated plus-maze test; type: functional

Row | SMILES | Activity (Mus musculus [1]) | Time (Mus musculus [2]) | Time (Mus musculus [3]) | Time (Mus musculus [4]) | Time (Mus musculus [5]) | Time (Mus musculus [6]) | Time (Mus musculus [7])
1 | C=CCc1ccc(O)c(-c2cc(CC=C)ccc2O)c1 | Active | – | – | – | – | – | –
2 | C=CCc1ccc(O)c(-c2ccc(O)c(CC=C)c2)c1 [HONOKIOL] | Active | 3.7 s | 4 s | 9.1 s | 10.9 s | 12.3 s | –
3 | CN1C(=O)CN=C(c2ccccc2)c2cc(Cl)ccc21 [DIAZEPAM] | – | – | – | – | – | – | 22.1 s
